The text below walks through data of ChEMBL document CHEMBL3393036, “Tetra-substituted pyridinylimidazoles as dual inhibitors of p38α mitogen-activated protein kinase and c-Jun N-terminal kinase 3 for potential treatment of neurodegenerative diseases” (J Med Chem, 2015).

Structures are written as SMILES.

The target in experiment [1] is Tyrosine-protein kinase CSK (Homo sapiens) (UniProt P41240). Put plainly: Inhibition of CSK (unknown origin) at 5.5 uM by Caliper Mobility Shift Assay.
For experiment [2], the species on record is Homo sapiens. The experiment can be described thus: Inhibition of CDK1B (unknown origin) at 5.5 uM by Caliper Mobility Shift Assay.
Experiment [3] addresses Ribosomal protein S6 kinase beta-2 (Homo sapiens) (UniProt Q9UBS0). Put plainly: Inhibition of S6K (unknown origin) at 5.5 uM by Caliper Mobility Shift Assay.
Experiment [4] addresses Interleukin-1 receptor-associated kinase 1 (Homo sapiens) (UniProt P51617). The experiment can be described thus: Inhibition of IRAK1 (unknown origin) at 5.5 uM by Caliper Mobility Shift Assay.
The target of experiment [5] is MAP kinase-interacting serine/threonine-protein kinase 1 (Homo sapiens) (UniProt Q9BUB5). Put plainly: Inhibition of MKNK1 (unknown origin) at 5.5 uM by Caliper Mobility Shift Assay.
Sequence of MAP kinase-interacting serine/threonine-protein kinase 1 (Homo sapiens) (Q9BUB5 whole entry, looked up): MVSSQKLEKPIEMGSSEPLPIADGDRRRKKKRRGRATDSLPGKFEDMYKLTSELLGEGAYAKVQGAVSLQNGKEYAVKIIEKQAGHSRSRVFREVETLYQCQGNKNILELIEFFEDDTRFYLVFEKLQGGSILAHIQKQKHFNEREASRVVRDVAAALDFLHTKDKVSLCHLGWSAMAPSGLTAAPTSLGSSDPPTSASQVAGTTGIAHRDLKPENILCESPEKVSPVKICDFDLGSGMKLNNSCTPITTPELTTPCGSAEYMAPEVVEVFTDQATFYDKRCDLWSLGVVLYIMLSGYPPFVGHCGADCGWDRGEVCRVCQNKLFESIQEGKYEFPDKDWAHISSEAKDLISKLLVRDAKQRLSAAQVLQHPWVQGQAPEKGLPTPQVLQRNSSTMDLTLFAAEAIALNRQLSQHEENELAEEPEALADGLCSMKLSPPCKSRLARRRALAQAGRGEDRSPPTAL
The target of experiment [6] is T1, Mitogen-activated protein kinase 14 (Homo sapiens, UniProt Q16539). The experiment can be described thus: Inhibition of p38alpha (unknown origin) assessed as phosphorylation of ATF-2 by ELISA.
T1 sequence (Q16539 whole entry): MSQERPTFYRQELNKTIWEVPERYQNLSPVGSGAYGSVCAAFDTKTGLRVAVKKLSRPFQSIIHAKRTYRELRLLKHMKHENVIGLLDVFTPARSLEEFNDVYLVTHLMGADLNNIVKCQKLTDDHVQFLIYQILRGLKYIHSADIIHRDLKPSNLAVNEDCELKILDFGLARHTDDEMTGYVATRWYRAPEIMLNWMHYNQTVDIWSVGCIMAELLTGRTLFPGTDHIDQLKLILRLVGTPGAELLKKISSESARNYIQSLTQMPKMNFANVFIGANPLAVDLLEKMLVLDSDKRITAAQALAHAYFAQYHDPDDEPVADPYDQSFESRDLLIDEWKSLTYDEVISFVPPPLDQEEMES
For experiment [7], the target named is ALK tyrosine kinase receptor (Homo sapiens) (UniProt Q9UM73). Put plainly: Inhibition of ALK (unknown origin) at 5.5 uM by Caliper Mobility Shift Assay.
Experiment [8] addresses T2, Ephrin type-B receptor 4 (Homo sapiens) (UniProt P54760).
T2 sequence (whole entry): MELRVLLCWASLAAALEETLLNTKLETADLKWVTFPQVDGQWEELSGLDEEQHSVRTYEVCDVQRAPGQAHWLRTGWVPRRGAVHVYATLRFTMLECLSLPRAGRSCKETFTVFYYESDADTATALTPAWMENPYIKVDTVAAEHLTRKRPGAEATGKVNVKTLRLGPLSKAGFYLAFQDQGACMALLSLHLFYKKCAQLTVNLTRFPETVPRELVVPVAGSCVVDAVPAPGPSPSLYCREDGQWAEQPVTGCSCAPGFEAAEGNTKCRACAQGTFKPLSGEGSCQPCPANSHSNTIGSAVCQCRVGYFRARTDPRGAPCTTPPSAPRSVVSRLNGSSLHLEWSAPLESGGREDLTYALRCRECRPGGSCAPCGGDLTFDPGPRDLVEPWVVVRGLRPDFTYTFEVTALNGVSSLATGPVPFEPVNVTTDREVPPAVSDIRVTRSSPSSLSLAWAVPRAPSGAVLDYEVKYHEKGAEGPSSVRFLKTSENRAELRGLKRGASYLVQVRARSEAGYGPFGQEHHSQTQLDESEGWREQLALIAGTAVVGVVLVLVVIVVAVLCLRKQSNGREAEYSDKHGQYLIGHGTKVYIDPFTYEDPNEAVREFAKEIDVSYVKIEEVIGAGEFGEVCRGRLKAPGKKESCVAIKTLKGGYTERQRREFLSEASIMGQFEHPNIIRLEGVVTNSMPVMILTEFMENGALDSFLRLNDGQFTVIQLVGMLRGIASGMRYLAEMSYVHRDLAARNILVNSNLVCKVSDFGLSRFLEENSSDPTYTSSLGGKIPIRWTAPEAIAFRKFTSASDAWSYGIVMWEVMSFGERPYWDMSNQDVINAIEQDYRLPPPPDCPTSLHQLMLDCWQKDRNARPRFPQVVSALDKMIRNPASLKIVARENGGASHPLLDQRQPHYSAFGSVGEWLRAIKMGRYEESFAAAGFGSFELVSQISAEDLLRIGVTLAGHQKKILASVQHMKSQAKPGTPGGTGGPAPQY
The experiment can be described thus: Inhibition of EPHB4 (unknown origin) at 5.5 uM by Caliper Mobility Shift Assay.

Experiment [9] has as its target Proto-oncogene tyrosine-protein kinase Src (Homo sapiens) (UniProt P12931). Put plainly: Inhibition of cSRC (unknown origin) at 5.5 uM by Caliper Mobility Shift Assay.
In experiment [10] the target is Protein kinase C theta type (Homo sapiens) (UniProt Q04759). Put plainly: Inhibition of PRKCQ (unknown origin) at 5.5 uM by Caliper Mobility Shift Assay.
Sequence of Protein kinase C theta type (Homo sapiens) (Q04759 whole entry, looked up): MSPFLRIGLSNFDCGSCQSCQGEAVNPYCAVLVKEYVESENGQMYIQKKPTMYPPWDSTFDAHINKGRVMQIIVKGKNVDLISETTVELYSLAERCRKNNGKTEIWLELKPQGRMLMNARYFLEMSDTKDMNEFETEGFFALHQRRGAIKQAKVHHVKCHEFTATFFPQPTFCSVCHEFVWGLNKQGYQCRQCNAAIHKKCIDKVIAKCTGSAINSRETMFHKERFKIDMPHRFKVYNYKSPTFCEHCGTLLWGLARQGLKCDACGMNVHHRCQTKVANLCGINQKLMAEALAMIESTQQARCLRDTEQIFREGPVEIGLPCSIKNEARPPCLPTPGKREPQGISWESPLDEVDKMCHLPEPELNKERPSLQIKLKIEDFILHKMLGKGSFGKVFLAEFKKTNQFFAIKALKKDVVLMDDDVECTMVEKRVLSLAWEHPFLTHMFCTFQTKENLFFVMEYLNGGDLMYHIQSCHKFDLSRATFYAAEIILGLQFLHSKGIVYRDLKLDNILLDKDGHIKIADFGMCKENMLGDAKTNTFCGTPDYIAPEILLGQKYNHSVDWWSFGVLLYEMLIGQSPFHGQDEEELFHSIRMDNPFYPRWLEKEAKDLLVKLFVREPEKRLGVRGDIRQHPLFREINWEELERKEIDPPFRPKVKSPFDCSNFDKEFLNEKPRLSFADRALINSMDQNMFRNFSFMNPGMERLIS
Experiment [11] is filed under the species Homo sapiens. The experiment can be described thus: Selectivity ratio of IC50 for JNK3 (unknown origin) to IC50 for p38alpha (unknown origin).
Experiment [12] deals with T3, MAP kinase-activated protein kinase 5 (Homo sapiens) (UniProt Q8IW41).
T3 sequence (whole entry): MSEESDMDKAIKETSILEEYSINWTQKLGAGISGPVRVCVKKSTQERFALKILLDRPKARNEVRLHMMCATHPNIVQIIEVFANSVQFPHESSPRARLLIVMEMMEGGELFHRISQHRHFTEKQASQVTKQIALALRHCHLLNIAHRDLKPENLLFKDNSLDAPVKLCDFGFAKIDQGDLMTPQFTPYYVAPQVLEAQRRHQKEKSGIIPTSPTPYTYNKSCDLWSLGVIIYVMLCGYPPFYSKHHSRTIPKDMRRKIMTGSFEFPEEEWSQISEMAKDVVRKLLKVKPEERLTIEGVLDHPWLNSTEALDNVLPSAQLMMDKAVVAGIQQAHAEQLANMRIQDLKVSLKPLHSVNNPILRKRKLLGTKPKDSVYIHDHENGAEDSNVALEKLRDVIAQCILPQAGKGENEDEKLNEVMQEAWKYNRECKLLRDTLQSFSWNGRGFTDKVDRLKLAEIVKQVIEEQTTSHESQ
Put plainly: Inhibition of MAPKAPK5 (MK5) (unknown origin) at 5.5 uM by Caliper Mobility Shift Assay.

Experiment [13] addresses Tyrosine-protein kinase SYK (Homo sapiens) (UniProt P43405). Put plainly: Inhibition of SYK (unknown origin) at 5.5 uM by Caliper Mobility Shift Assay.
For experiment [14], the target named is Fibroblast growth factor receptor 3 (Homo sapiens) (UniProt P22607). The experiment can be described thus: Inhibition of FGFR3 (unknown origin) at 5.5 uM by Caliper Mobility Shift Assay.
Experiment [15] relates to Fibroblast growth factor receptor 3 (Homo sapiens), P22607 [K650E]. Put plainly: Inhibition of FGFR3 K650E (unknown origin) at 5.5 uM by Caliper Mobility Shift Assay.
Sequence of Fibroblast growth factor receptor 3 (Homo sapiens), P22607 [K650E] (P22607 whole entry K650E): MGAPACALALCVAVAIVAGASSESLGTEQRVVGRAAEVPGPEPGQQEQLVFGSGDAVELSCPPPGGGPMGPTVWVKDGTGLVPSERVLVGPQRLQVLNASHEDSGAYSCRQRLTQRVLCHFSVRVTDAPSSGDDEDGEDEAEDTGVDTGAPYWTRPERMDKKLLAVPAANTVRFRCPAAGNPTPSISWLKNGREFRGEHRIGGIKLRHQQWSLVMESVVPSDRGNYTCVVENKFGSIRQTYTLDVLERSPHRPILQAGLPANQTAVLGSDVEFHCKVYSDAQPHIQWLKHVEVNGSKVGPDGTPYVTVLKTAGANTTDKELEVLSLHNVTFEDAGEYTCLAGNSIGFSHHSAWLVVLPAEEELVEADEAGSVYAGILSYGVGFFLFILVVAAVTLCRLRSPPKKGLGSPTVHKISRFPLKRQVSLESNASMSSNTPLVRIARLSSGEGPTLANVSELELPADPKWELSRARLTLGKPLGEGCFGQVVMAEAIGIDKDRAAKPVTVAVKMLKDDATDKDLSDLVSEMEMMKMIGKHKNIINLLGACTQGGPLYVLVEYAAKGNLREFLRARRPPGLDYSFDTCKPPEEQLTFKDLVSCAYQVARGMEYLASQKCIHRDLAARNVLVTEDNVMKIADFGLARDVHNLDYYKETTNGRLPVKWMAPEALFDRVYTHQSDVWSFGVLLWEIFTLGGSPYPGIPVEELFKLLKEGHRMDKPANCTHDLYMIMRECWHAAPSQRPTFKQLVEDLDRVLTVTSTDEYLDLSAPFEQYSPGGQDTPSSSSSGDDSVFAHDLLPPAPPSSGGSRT
The target in experiment [16] is Fibroblast growth factor receptor 2 (Homo sapiens) (UniProt P21802). The experiment can be described thus: Inhibition of FGFR2 (unknown origin) at 5.5 uM by Caliper Mobility Shift Assay.
Sequence of Fibroblast growth factor receptor 2 (Homo sapiens) (P21802 22-821 limits assumed): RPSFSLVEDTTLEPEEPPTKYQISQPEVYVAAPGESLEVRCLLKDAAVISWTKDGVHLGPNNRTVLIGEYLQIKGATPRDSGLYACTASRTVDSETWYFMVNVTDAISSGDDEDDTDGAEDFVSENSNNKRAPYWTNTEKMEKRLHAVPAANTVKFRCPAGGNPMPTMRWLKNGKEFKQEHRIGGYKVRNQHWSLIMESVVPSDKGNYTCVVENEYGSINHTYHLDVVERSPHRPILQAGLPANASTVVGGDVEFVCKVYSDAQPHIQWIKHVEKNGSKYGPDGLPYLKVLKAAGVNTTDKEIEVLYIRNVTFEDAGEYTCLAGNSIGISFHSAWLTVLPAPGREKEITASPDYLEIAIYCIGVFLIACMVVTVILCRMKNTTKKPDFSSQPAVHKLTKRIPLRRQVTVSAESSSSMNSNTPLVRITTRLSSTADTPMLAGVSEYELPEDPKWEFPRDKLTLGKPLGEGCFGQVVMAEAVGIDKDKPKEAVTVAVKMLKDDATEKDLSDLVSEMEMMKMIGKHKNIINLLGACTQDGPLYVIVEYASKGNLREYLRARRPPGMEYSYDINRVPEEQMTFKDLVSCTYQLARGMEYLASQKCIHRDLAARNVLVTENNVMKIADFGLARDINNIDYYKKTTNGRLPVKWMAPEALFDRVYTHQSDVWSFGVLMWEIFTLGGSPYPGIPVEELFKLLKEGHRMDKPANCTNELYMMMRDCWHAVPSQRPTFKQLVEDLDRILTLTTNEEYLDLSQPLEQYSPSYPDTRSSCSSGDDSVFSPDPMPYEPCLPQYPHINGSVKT
In experiment [17] the target is Calcium/calmodulin-dependent protein kinase type II subunit beta (Homo sapiens) (UniProt Q13554). The experiment can be described thus: Inhibition of CAMK2 (unknown origin) at 5.5 uM by Caliper Mobility Shift Assay.
Sequence of Calcium/calmodulin-dependent protein kinase type II subunit beta (Homo sapiens) (Q13554 whole entry): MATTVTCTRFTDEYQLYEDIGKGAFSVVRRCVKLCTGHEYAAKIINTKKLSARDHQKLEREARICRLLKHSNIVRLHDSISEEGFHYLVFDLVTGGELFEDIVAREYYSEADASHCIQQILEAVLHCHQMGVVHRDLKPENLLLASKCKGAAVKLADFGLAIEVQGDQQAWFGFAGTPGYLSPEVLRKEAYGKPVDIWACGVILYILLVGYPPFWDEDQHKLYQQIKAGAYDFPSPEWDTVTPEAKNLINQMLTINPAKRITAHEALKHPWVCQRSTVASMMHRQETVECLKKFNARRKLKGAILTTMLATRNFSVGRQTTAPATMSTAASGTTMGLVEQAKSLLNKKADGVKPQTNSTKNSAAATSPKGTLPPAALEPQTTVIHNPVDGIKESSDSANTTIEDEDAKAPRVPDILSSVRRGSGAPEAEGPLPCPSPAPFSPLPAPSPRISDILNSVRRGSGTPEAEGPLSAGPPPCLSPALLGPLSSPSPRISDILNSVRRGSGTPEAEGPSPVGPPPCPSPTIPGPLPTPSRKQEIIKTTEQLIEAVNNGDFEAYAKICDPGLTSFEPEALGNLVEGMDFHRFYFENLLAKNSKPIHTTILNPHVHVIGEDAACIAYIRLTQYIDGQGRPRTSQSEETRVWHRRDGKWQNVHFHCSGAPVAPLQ
Experiment [18] has as its target T1, Mitogen-activated protein kinase 14. Put plainly: Inhibition of p38a (unknown origin) at 5.5 uM by Caliper Mobility Shift Assay.
Experiment [19] deals with Cyclin-dependent kinase 2 (Homo sapiens) (UniProt P24941). The experiment can be described thus: Inhibition of CDK2 (unknown origin) at 5.5 uM by Caliper Mobility Shift Assay.

Sequence of Proto-oncogene tyrosine-protein kinase Src (Homo sapiens) (P12931 2-536 limits assumed): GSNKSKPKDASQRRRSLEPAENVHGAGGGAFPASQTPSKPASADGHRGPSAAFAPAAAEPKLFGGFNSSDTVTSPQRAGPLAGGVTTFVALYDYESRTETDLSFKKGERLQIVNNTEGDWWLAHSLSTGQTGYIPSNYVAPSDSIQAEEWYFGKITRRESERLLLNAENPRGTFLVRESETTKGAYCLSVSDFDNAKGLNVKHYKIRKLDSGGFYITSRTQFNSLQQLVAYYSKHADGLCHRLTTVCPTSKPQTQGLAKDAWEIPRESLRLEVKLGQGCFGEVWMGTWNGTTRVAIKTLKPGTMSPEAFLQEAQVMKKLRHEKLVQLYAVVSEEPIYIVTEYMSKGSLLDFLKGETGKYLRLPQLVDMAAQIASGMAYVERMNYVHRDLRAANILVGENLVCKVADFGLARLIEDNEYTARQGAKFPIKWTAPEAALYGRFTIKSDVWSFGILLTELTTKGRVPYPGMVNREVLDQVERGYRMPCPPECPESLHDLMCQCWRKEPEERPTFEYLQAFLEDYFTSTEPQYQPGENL
Sequence of Ribosomal protein S6 kinase beta-2 (Homo sapiens) (Q9UBS0 whole entry): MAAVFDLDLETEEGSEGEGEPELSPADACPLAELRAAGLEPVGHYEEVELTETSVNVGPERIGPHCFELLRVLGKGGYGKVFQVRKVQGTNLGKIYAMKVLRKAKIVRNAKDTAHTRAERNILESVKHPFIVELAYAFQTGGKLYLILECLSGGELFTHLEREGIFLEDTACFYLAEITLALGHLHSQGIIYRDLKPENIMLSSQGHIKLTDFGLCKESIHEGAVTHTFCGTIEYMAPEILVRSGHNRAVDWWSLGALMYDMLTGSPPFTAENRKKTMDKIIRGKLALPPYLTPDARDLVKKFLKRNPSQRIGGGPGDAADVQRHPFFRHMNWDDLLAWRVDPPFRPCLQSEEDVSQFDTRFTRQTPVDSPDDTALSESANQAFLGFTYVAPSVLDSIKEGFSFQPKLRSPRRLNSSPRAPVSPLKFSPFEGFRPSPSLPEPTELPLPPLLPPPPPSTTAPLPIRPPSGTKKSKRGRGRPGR

For the compound `CC(=O)Nc1cc(-c2c(-c3ccc(F)cc3)nc(S/C=C\C(=O)O)n2CC2CCCO2)ccn1` (racemic), the inhibition (in experiment [1]; in the experiment filed under Homo sapiens [2]; in experiment [3]; in [4]; in experiment [5]; in [7]) was under 50% throughout. For the same compound, the inhibition in [8], in [9], in experiment [10], in experiment [12], in experiment [13] and in experiment [14] was under 50% in each case. Also, the inhibition in experiment [15], in experiment [16], in experiment [17], in [18] and in experiment [19] was under 50% in each case. Besides, the IC50 in experiment [6] was 223 nM. In addition, the Ratio IC50 in the experiment listed under Homo sapiens [11] turned out to be 0.2.

Regarding `CC(=O)Nc1cc(-c2c(-c3ccc(F)cc3)nc(S/C=C\C(=O)O)n2C2CC2)ccn1`, the inhibition (in experiment [1]; in the experiment filed under Homo sapiens [2]; in [3]; in experiment [4]; in [5]; in experiment [7]) was under 50% in each case. For the same compound, the inhibition in experiment [8], in experiment [9], in [10], in experiment [12], in experiment [13] and in [14] was under 50% throughout. Further, the inhibition in experiment [15], in experiment [16], in experiment [17], in experiment [18] and in experiment [19] was under 50% each time. Also, the IC50 in experiment [6] was 123 nM. Further, the Ratio IC50 in the experiment filed under Homo sapiens [11] was 0.7.

With `CC(=O)Nc1cc(-c2c(-c3ccc(F)cc3)nc(S/C=C\C(=O)O)n2C2CCCCC2)ccn1`, the inhibition (in experiment [1]; in the experiment filed under Homo sapiens [2]; in [3]; in [4]; in experiment [5]; in experiment [7]) was under 50% throughout. In addition, the inhibition in experiment [8], in experiment [9], in experiment [10], in experiment [12], in experiment [13] and in experiment [14] was under 50% throughout. Besides, the inhibition in experiment [15], in experiment [16], in experiment [17], in experiment [18] and in [19] was under 50% each time. For the same compound, the IC50 in [6] amounted to 165 nM. Also, the Ratio IC50 in the experiment listed under Homo sapiens [11] amounted to 0.8.

Turning to `CC(=O)Nc1cc(-c2c(-c3ccc(F)cc3)nc(Sc3cccc(I)n3)n2C2CCCCC2)ccn1`, the inhibition (in experiment [1]; in the experiment listed under Homo sapiens [2]; in experiment [3]; in experiment [4]; in experiment [5]; in [7]) was under 50% in each case. In addition, the inhibition in experiment [8], in experiment [9], in [10], in [12], in experiment [13] and in experiment [14] was under 50% throughout. Also, the inhibition in experiment [15], in [16], in experiment [17], in experiment [18] and in experiment [19] was under 50% in each case. Also, the IC50 in [6] stood at 356 nM. Besides, in the experiment listed under Homo sapiens [11], the Ratio IC50 is 4.3.

As to `COC(Cn1c(SC2CCC(C(=O)O)CC2O)nc(-c2ccc(F)cc2)c1-c1ccnc(NC(C)=O)c1)OC` (stereo not given), the inhibition (in experiment [1]; in the experiment filed under Homo sapiens [2]; in [3]; in experiment [4]; in experiment [5]; in [7]) was under 50% throughout. For the same compound, the inhibition in experiment [8], in experiment [9], in [10], in experiment [12], in experiment [13] and in experiment [14] was under 50% throughout. Also, the inhibition in [15], in [16], in [17], in experiment [18] and in [19] was under 50% in each case. Also, the IC50 in experiment [6] was 135 nM. Further, the Ratio IC50 in the experiment filed under Homo sapiens [11] was 14.9.
